This is an account of results in patent publication US20050059658A1, “Pyridazinone” (priority 2001, published 2005).

A word on the CC50: it is the concentration at which the toxic effect on the cells reaches its halfway point. By EC50 is commonly meant the midpoint of the concentration-response curve. Broadly, the melting point is the temperature of the solid-liquid transition.

Data set [1] in a line: Cytotoxicity on NHDF cells in the anti-HCMV cytopathogenicity test. The data set is classed as cell-based. The conditions noted are these: human, NHDF cells (normal human dermal fibroblasts), 6 days incubation, visual evaluation. The procedure: (§1) The test compounds are used as 50 millimolar (mM) solutions in dimethyl sulfoxide (DMSO). The reference compounds used are ganciclovir, foscarnet and cidofovir. In each case 2 μl of the 50, 5, 0.5 and 0.05 mM DMSO stock solutions are added to in each case 98 μl of cell culture medium in row […] in duplicate, and 1:2 dilutions with in each case 50 μl of medium are then made up to row 11 of the 96-well plate. The wells in rows 1 and 12 each contain 50 μl of medium. In each case 150 μl of a suspension of 1×10^4 cells (NHDF=normal human dermal fibroblasts) (row 1 =cell control) and, for rows 2-12, a mixture of HCMV-infected and non-infected NHDF cells (M.O.I.=0.001-0.002), i.e. 1-2 infected cells per 1000 non-infected cells, are then pipetted into the wells. Row 12 (without substance) serves as virus control. The final test concentrations are 250-0.0005 μM. The plates are incubated at 37° C./5% CO2 for 6 days, i.e. until all cells in the virus controls are infected (100% cytopathogenic effect [CPE]). The wells are then fixed by adding a mixture of formalin and Giemsa's dye and stained (30 minutes), washed with doubly distilled water and dried in a drying cabinet at 50° C. The plates are then examined visually using an overhead microscope (Plaque multiplier from Technomara). Using the test plates, the following data can be determined: • CC50 (NHDF)=substance concentration in μM where, compared to the untreated cell control, no cytostatic effects on the cells are evident; • EC50 (HCMV)=substance concentration in μM where the CPE (cytopathic effect) is inhibited by 50% compared to the untreated virus control; • SI (selectivity index)=CC50 (NHDF)/EC50 (HCMV). In vivo Action: HCMV Xenograft Gelfoam® Model: Animals: […]
Background: Protection from cytopathic effect is a common read-out in antiviral testing.

The test system of data set [2] is human cytomegalovirus (HCMV). In words: Anti-HCMV (anti-human cytomegalovirus) cytopathogenicity test. The settings on record: for EC50: Human betaherpesvirus 5, 144 h, HCMV-infected NHDF cells, M.O.I. 0.001-0.002, 6 days, 50% inhibition of CPE; for SI HCMV: selectivity index = CC50 (NHDF)/EC50 (HCMV). Format: cell-based. How it is done:
as §1

In data set [3] the test system is Human cytomegalovirus (HCMV), DavisSmith strain. In words: HCMV xenograft Gelfoam model. Format: in vivo, immunodeficient mice. The conditions noted are these: perorally three times a day for 8 days, SCID mice, HCMV-infected NHDF cells in Gelfoam sponge. An excerpt: Female immunodeficient mice (16-18 g), Fox Chase SCID or Fox Chase SCID-NOD or SCID-beige, 3-4 weeks old, are obtained from commercial breeders (Bomholtgaard, Jackson). The animals are kept under sterile conditions (including litter and feed) in isolation units.
Human cytomegalovirus (HCMV), DavisSmith strain, is cultivated in vitro on embryonal human dermal fibroblasts (NHDF cells). Following infection of the NHDF cells with a multiplicity of infection (M.O.I.) of 0.01, the virus-infected cells are harvested after 5-7 days and, in the presence of minimal essential medium (MEM), 10% fetal calf serum (FCS) with 10% DMSO, stored at −40° C. Following serial dilution of the virus-infected cells in steps of ten, the titer is determined on 24-well plates of confluent NHDF cells after vital stain with Neutral Red.
Collagen sponges (Gelfoam®; from Peasel & Lorey, order No. 40734; K. T. Chong et al., Abstracts of 39th Interscience Conference on Antimicrobial Agents and Chemotherapy, 1999, p. 439) of a size of 1×1×1 cm are initially wetted with phosphate-buffered saline (PBS), the enclosed air bubbles are removed by degassing and the sponges are then stored in MEM+10% FCS. […] What is determined is the number of infectious virus particles after substance treatment compared to the placebo-treated control group.

`CC1(C)CC(=O)NN=C1c1cccc(NC(=O)Nc2ccc(F)cc2F)c1` [Example 1, N-(2,4-Difluorophenyl)-N′-[3-(4,4-dimethyl-6-oxo-1,4,5,6-tetrahydro-3-pyridazinyl)-phenyl]urea] displayed a melting point of 213 °C. Besides, the CC50 at 6 days in data set [1] was found to be 125 µM. Further, in data set [2], a half-maximal response (EC50) required 0.96 µM and the “SI HCMV” value came out at 130. For the same compound, the “Murine xenograft model ED50 t.i.d.” value in data set [3] came to 18 mg]kg.

In turn, `CC1(C)CC(=O)NN=C1c1cccc(NC(=O)Nc2ccc(F)c(Cl)c2)c1` [Example 2, N-(3-Chloro-4-fluorophenyl)-N′-[3-(4,4-dimethyl-6-oxo-1,4,5,6-tetrahydro-3-pyridazinyl)phenyl]urea] displayed a CC50 at 6 days in data set [1] of 23 µM. For the same compound, in data set [2], the EC50 was found to be 0.07 µM and the “SI HCMV” value is listed as 329.

`CC1(C)CC(=O)NN=C1c1cccc(NC(=O)Nc2cccc(Br)c2)c1` [Example 3, N-(3-Bromophenyl)-N′-[3-(4,4-dimethyl-6-oxo-1,4,5,6-tetrahydro-3-pyridazinyl)-phenyl]urea] yielded a melting point of 207 °C. For the same compound, in data set [1], the CC50 at 6 days was determined as 24 µM. For the same compound, in data set [2], the EC50 was found to be 0.13 µM and the “SI HCMV” value amounted to 185.

In turn, `Cc1cc(Cl)ccc1NC(=O)Nc1cccc(C2=NNC(=O)CC2(C)C)c1` [Example 4, N-(4-Chloro-2-methylphenyl)-N′-[3-(4,4-dimethyl-6-oxo-1,4,5,6-tetrahydro-3-pyridazinyl)phenyl]urea] registered a melting point of 232 °C. In data set [1], the CC50 at 6 days was > 23 µM. In data set [2], the half-maximal effective concentration (EC50) is 0.15 µM and the “SI HCMV” value is >153. Also, the “Murine xenograft model ED50 t.i.d.” value in data set [3] is 8 mg]kg.

`CC1(C)CC(c2ccccc2NC(=O)Nc2ccc(F)cc2F)=NNC1=O` [Example 5, N-(2,4-Difluorophenyl)-N′-[2-(5,5-dimethyl-6-oxo-1,4,5,6-tetrahydro-3-pyridazinyl)-phenyl]urea] showed a CC50 at 6 days in data set [1] of 125 µM. Besides, in data set [2], a half-maximal response (EC50) required 6.1 µM and the “SI HCMV” value is 21.

`CC1(C)CC(c2cccc(NC(=O)Nc3ccc(F)c(F)c3)c2)=NNC1=O` [Example 6, N-(3,4-Difluorophenyl)-N′-[3-(5,5-dimethyl-6-oxo-1,4,5,6-tetrahydro-3-pyridazinyl)-phenyl]urea]: the melting point is 200 °C.
